{"source": "the OligoGym collection", "settings": "siRNA", "note": "HELM strings list units from the 5' end as sugar, base in round brackets, then linkage (d deoxyribose, r ribose, m 2'-O-methyl, p phosphodiester). Strings are as the collection lists them, not checked against the first reports. ss, as = sense and antisense strand; [lna] = locked nucleic acid (LNA); [hna] = hexitol nucleic acid; [s4r] = 4'-thioribose; [fl2r] = 2'-fluoro; note: test system not given here", "data": [{"substance": "RNA1{r(C)p.r(C)p.r(C)p.r(U)p.r(C)p.r(C)p.r(C)p.r(C)p.[fl2r](U)p.r(G)p.r(U)p.r(C)p.r(C)p.r(C)p.r(C)p.r(G)p.[fl2r](C)p.r(U)p.r(U)p.r(T)p.r(T)}|RNA2{r(A)p.r(A)p.r(G)p.r(C)p.r(G)p.r(G)p.r(G)p.r(G)p.r(A)p.[fl2r](C)p.r(A)p.r(G)p.r(G)p.r(G)p.r(G)p.r(A)p.r(G)p.r(G)p.r(G)p.r(T)p.r(T)}$$$RNA1{StrandType:ss}|RNA2{StrandType:as}$", "values": [{"measurement": "target mRNA knockdown", "result": 72, "unit": "%"}]}, {"substance": "RNA1{r(A)p.r(U)p.r(C)p.r(U)p.r(G)p.r(A)p.r(A)p.r(G)p.r(A)p.r(A)p.r(G)p.r(G)p.r(A)p.r(G)p.r(A)p.r(A)p.r(A)p.r(A)p.r(A)p.[lna](T)p.[lna](T)}|RNA2{r(U)p.r(U)p.r(U)p.r(U)p.r(U)p.r(C)p.r(U)p.r(C)p.r(C)p.r(U)p.r(U)p.r(C)p.r(U)p.r(U)p.r(C)p.r(A)p.r(G)p.r(A)p.r(U)p.[lna](T)p.[lna](T)}$$$RNA1{StrandType:ss}|RNA2{StrandType:as}$", "values": [{"measurement": "target mRNA knockdown", "result": 93, "unit": "%"}]}, {"substance": "RNA1{m(A)p.m(A)p.m(G)p.r(G)p.r(A)p.m(G)p.m(A)p.m(U)p.r(C)p.r(A)p.r(A)p.m(C)p.m(A)p.m(U)p.r(U)p.r(U)p.m(U)p.m(C)p.m(A)p.r(T)p.r(T)}|RNA2{m(U)p.m(G)p.m(A)p.r(A)p.r(A)p.m(A)p.m(U)p.m(G)p.r(U)p.r(U)p.r(G)p.m(A)p.m(U)p.m(C)p.r(U)p.r(C)p.m(C)p.m(U)p.m(U)p.r(T)p.r(T)}$$$RNA1{StrandType:ss}|RNA2{StrandType:as}$", "values": [{"measurement": "target mRNA knockdown", "result": 45, "unit": "%"}]}, {"substance": "RNA1{r(A)p.r(A)p.r(C)p.r(C)p.r(C)p.r(A)p.r(C)p.r(C)p.r(A)p.r(C)p.r(A)p.r(G)p.r(C)p.m(U)p.m(A)p.r(G)p.r(A)p.r(A)p.r(C)p.r(U)p.r(U)}|RNA2{r(A)p.r(A)p.r(G)p.r(U)p.r(U)p.r(C)p.r(U)p.r(A)p.r(G)p.r(C)p.r(U)p.r(G)p.r(U)p.r(G)p.r(G)p.r(U)p.r(G)p.r(G)p.r(G)p.r(U)p.r(U)}$$$RNA1{StrandType:ss}|RNA2{StrandType:as}$", "values": [{"measurement": "target mRNA knockdown", "result": 79, "unit": "%"}]}, {"substance": "RNA1{r(U)p.r(U)p.r(U)p.m(G)p.r(A)p.r(U)p.m(C)p.r(A)p.r(G)p.r(C)p.r(G)p.r(G)p.r(A)p.r(G)p.r(A)p.r(C)p.r(U)p.r(C)p.r(G)p.r(T)p.r(T)}|RNA2{r(C)p.r(G)p.r(A)p.r(G)p.r(U)p.r(C)p.r(U)p.r(C)p.r(C)p.r(G)p.r(C)p.r(U)p.r(G)p.r(A)p.r(U)p.r(C)p.r(A)p.r(A)p.r(A)p.r(T)p.r(T)}$$$RNA1{StrandType:ss}|RNA2{StrandType:as}$", "values": [{"measurement": "target mRNA knockdown", "result": 82, "unit": "%"}]}, {"substance": "RNA1{r(G)p.r(A)p.r(C)p.r(G)p.[hna](U)p.r(A)p.r(A)p.[hna](A)p.r(C)p.r(G)p.[hna](G)p.r(C)p.r(C)p.[hna](A)p.r(C)p.r(A)p.r(A)p.r(G)p.[hna](U)p.r(U)p.d(T)}|RNA2{r(A)p.[hna](C)p.r(U)p.r(U)p.r(G)p.r(U)p.r(G)p.r(G)p.[hna](C)p.r(C)p.r(G)p.r(U)p.r(U)p.r(U)p.r(A)p.r(C)p.r(G)p.[hna](U)p.[hna](C)p.[hna](G)p.d(T)}$$$RNA1{StrandType:ss}|RNA2{StrandType:as}$", "values": [{"measurement": "target mRNA knockdown", "result": 0, "unit": "%"}]}, {"substance": "RNA1{r(G)p.m(C)p.r(A)p.r(G)p.r(C)p.r(A)p.r(C)p.r(G)p.r(A)p.r(C)p.r(U)p.r(U)p.r(C)p.r(U)p.r(U)p.r(C)p.r(A)p.r(A)p.r(G)p.r(U)p.r(U)}|RNA2{r(C)p.r(U)p.r(U)p.r(G)p.r(A)p.r(A)p.r(G)p.r(A)p.r(A)p.r(G)p.r(U)p.r(C)p.r(G)p.r(U)p.r(G)p.r(C)p.r(U)p.r(G)p.r(C)p.r(U)p.r(U)}$$$RNA1{StrandType:ss}|RNA2{StrandType:as}$", "values": [{"measurement": "target mRNA knockdown", "result": 71.7, "unit": "%"}]}, {"substance": "RNA1{r(G)p.r(A)p.r(C)p.r(G)p.[hna](U)p.r(A)p.r(A)p.[hna](A)p.r(C)p.r(G)p.[hna](G)p.r(C)p.r(C)p.[hna](A)p.r(C)p.r(A)p.r(A)p.r(G)p.[hna](U)p.[hna](U)p.d(T)}|RNA2{r(A)p.r(C)p.r(U)p.r(U)p.r(G)p.r(U)p.r(G)p.r(G)p.r(C)p.r(C)p.r(G)p.r(U)p.r(U)p.r(U)p.r(A)p.r(C)p.r(G)p.r(U)p.r(C)p.r(G)p.r(C)}$$$RNA1{StrandType:ss}|RNA2{StrandType:as}$", "values": [{"measurement": "target mRNA knockdown", "result": 87.4, "unit": "%"}]}, {"substance": "RNA1{r(C)p.r(U)p.r(U)p.r(A)p.r(C)p.r(G)p.r(C)p.r(U)p.r(G)p.r(A)p.r(G)p.r(U)p.r(A)p.r(C)p.r(U)p.r(U)p.r(C)p.r(G)p.r(A)p.r(T)p.r(T)}|RNA2{r(T)p.r(C)p.r(G)p.r(A)p.r(A)p.r(G)p.r(U)p.r(A)p.r(C)p.r(U)p.r(C)p.r(A)p.r(G)p.r(C)p.r(G)p.r(U)p.r(A)p.[lna](A)p.r(G)p.[lna](T)p.[lna](T)}$$$RNA1{StrandType:ss}|RNA2{StrandType:as}$", "values": [{"measurement": "target mRNA knockdown", "result": 95, "unit": "%"}]}, {"substance": "RNA1{[lna](A)p.r(C)p.r(U)p.r(G)p.r(U)p.r(C)p.r(A)p.r(A)p.r(A)p.r(C)p.r(C)p.r(C)p.r(G)p.r(G)p.r(U)p.r(A)p.r(A)p.r(U)p.r(U)p.[lna](T)p.[lna](T)}|RNA2{r(A)p.r(A)p.r(U)p.r(U)p.r(A)p.r(C)p.r(C)p.r(G)p.r(G)p.r(G)p.r(U)p.r(U)p.r(U)p.r(G)p.r(A)p.r(C)p.r(A)p.r(G)p.r(U)p.[lna](T)p.[lna](T)}$$$RNA1{StrandType:ss}|RNA2{StrandType:as}$", "values": [{"measurement": "target mRNA knockdown", "result": 52, "unit": "%"}]}, {"substance": "RNA1{[s4r](A)p.[s4r](A)p.[s4r](A)p.[s4r](C)p.r(A)p.r(U)p.r(G)p.r(C)p.r(A)p.r(G)p.r(A)p.r(A)p.r(A)p.r(A)p.r(U)p.[s4r](G)p.[s4r](C)p.[s4r](U)p.[s4r](G)p.r(T)p.r(T)}|RNA2{r(C)p.r(A)p.r(G)p.r(C)p.r(A)p.r(U)p.r(U)p.r(U)p.r(U)p.r(C)p.r(U)p.r(G)p.r(C)p.r(A)p.r(U)p.r(G)p.r(U)p.[s4r](U)p.[s4r](U)p.r(T)p.r(T)}$$$RNA1{StrandType:ss}|RNA2{StrandType:as}$", "values": [{"measurement": "target mRNA knockdown", "result": 85.5, "unit": "%"}]}, {"substance": "RNA1{m(A)p.r(U)p.m(C)p.r(C)p.m(U)p.r(G)p.m(C)p.r(A)p.m(G)p.r(A)p.m(A)p.r(G)p.m(A)p.r(A)p.m(G)p.r(C)p.m(C)p.r(U)p.m(C)p.r(T)p.r(T)}|RNA2{r(G)p.r(A)p.r(G)p.r(G)p.m(C)p.r(U)p.r(U)p.m(C)p.r(U)p.r(U)p.m(C)p.r(U)p.r(G)p.m(C)p.r(A)p.r(G)p.r(G)p.r(A)p.r(U)p.r(T)p.r(T)}$$$RNA1{StrandType:ss}|RNA2{StrandType:as}$", "values": [{"measurement": "target mRNA knockdown", "result": 37, "unit": "%"}]}, {"substance": "RNA1{r(A)p.r(U)p.r(C)p.r(G)p.r(U)p.r(C)p.r(G)p.r(U)p.m(C)p.r(A)p.r(G)p.r(G)p.r(G)p.m(U)p.r(A)p.r(A)p.r(G)p.r(G)p.r(U)p.r(T)p.r(T)}|RNA2{r(A)p.r(C)p.r(C)p.r(U)p.m(U)p.r(A)p.r(C)p.r(C)p.r(C)p.m(U)p.r(G)p.r(A)p.r(C)p.r(G)p.r(A)p.r(C)p.r(G)p.r(A)p.r(U)p.r(T)p.r(T)}$$$RNA1{StrandType:ss}|RNA2{StrandType:as}$", "values": [{"measurement": "target mRNA knockdown", "result": 47, "unit": "%"}]}, {"substance": "RNA1{r(G)p.m(U)p.r(A)p.r(C)p.r(U)p.r(C)p.m(U)p.r(G)p.r(A)p.m(U)p.r(G)p.r(A)p.r(G)p.r(G)p.r(A)p.r(A)p.r(G)p.r(A)p.r(G)p.r(T)p.r(T)}|RNA2{r(C)p.r(U)p.r(C)p.r(U)p.r(U)p.r(C)p.r(C)p.r(U)p.m(C)p.r(A)p.r(U)p.m(C)p.r(A)p.r(G)p.r(A)p.r(G)p.r(U)p.m(A)p.r(C)p.r(T)p.r(T)}$$$RNA1{StrandType:ss}|RNA2{StrandType:as}$", "values": [{"measurement": "target mRNA knockdown", "result": 68, "unit": "%"}]}, {"substance": "RNA1{[fl2r](C)p.r(G)p.[fl2r](A)p.r(C)p.[fl2r](G)p.r(A)p.[fl2r](U)p.r(U)p.[fl2r](C)p.r(U)p.[fl2r](U)p.r(C)p.[fl2r](U)p.r(A)p.[fl2r](C)p.r(U)p.[fl2r](C)p.r(A)p.[fl2r](A)p.r(T)p.r(T)}|RNA2{r(U)p.r(U)p.r(G)p.r(A)p.r(G)p.r(U)p.r(A)p.r(G)p.r(A)p.r(A)p.r(G)p.r(A)p.r(A)p.r(U)p.r(C)p.r(G)p.r(U)p.r(C)p.r(G)p.r(T)p.r(T)}$$$RNA1{StrandType:ss}|RNA2{StrandType:as}$", "values": [{"measurement": "target mRNA knockdown", "result": 56, "unit": "%"}]}, {"substance": "RNA1{r(C)p.r(U)p.r(C)p.r(C)p.r(C)p.r(C)p.r(A)p.r(G)p.r(U)p.r(C)p.r(U)p.r(C)p.r(U)p.r(C)p.r(U)p.r(U)p.m(A)p.r(A)p.r(A)p.r(T)p.r(T)}|RNA2{r(U)p.r(U)p.r(U)p.m(A)p.r(A)p.r(G)p.r(A)p.r(G)p.r(A)p.r(G)p.r(A)p.r(C)p.r(U)p.r(G)p.r(G)p.r(G)p.r(G)p.r(A)p.r(G)p.r(T)p.r(T)}$$$RNA1{StrandType:ss}|RNA2{StrandType:as}$", "values": [{"measurement": "target mRNA knockdown", "result": 69, "unit": "%"}]}, {"substance": "RNA1{[fl2r](G)p.r(A)p.[fl2r](C)p.r(C)p.[fl2r](A)p.r(C)p.[fl2r](G)p.r(A)p.[fl2r](A)p.r(G)p.[fl2r](A)p.r(G)p.[fl2r](U)p.r(U)p.[fl2r](A)p.r(A)p.[fl2r](C)p.r(C)p.[fl2r](C)p.r(T)p.r(T)}|RNA2{r(G)p.r(G)p.r(G)p.r(U)p.r(U)p.r(A)p.r(A)p.r(C)p.r(U)p.r(C)p.r(U)p.r(U)p.r(C)p.r(G)p.r(U)p.r(G)p.r(G)p.r(U)p.r(C)p.r(T)p.r(T)}$$$RNA1{StrandType:ss}|RNA2{StrandType:as}$", "values": [{"measurement": "target mRNA knockdown", "result": 51, "unit": "%"}]}, {"substance": "RNA1{r(G)p.r(G)p.r(G)p.r(A)p.r(G)p.r(G)p.r(U)p.r(C)p.r(U)p.m(U)p.r(A)p.r(G)p.r(A)p.r(A)p.r(A)p.r(A)p.r(C)p.r(A)p.r(C)p.r(T)p.r(T)}|RNA2{r(G)p.r(U)p.r(G)p.r(U)p.r(U)p.r(U)p.r(U)p.r(C)p.m(U)p.r(A)p.r(A)p.r(G)p.r(A)p.r(C)p.r(C)p.r(U)p.r(C)p.r(C)p.r(C)p.r(T)p.r(T)}$$$RNA1{StrandType:ss}|RNA2{StrandType:as}$", "values": [{"measurement": "target mRNA knockdown", "result": 84, "unit": "%"}]}, {"substance": "RNA1{r(C)p.r(U)p.r(U)p.r(A)p.r(C)p.r(G)p.r(C)p.r(U)p.r(G)p.r(A)p.r(G)p.r(U)p.r(A)p.r(C)p.r(U)p.r(U)p.r(C)p.r(G)p.r(A)p.r(T)p.r(T)}|RNA2{[lna](T)p.r(C)p.r(G)p.r(A)p.r(A)p.r(G)p.r(U)p.r(A)p.r(C)p.r(U)p.r(C)p.r(A)p.r(G)p.r(C)p.r(G)p.r(U)p.r(A)p.r(A)p.r(G)p.[lna](T)p.[lna](T)}$$$RNA1{StrandType:ss}|RNA2{StrandType:as}$", "values": [{"measurement": "target mRNA knockdown", "result": 57, "unit": "%"}]}, {"substance": "RNA1{r(A)p.r(A)p.r(A)p.r(G)p.r(G)p.r(G)p.r(G)p.r(A)p.r(G)p.r(U)p.m(U)p.r(G)p.r(C)p.m(U)p.r(G)p.r(G)p.r(A)p.r(A)p.r(G)p.r(T)p.r(T)}|RNA2{r(C)p.r(U)p.r(U)p.r(C)p.m(C)p.r(A)p.r(G)p.r(C)p.r(A)p.r(A)p.r(C)p.r(U)p.r(C)p.r(C)p.r(C)p.r(C)p.r(U)p.r(U)p.r(U)p.r(T)p.r(T)}$$$RNA1{StrandType:ss}|RNA2{StrandType:as}$", "values": [{"measurement": "target mRNA knockdown", "result": 76, "unit": "%"}]}]}
